Here are results for six compounds from ChEMBL document CHEMBL1149427 (Bioorg Med Chem Lett, 2006).

Molecules are shown by their SMILES.

Experiment [1] concerns the target Histamine H1 receptor (Cavia porcellus) (UniProt P31389). The experiment is described as follows: (§1) Agonist activity at histamine H1 receptor in guinea pig ileum. Type of experiment: functional, tissue-based.
Experiment [2] addresses Histamine H1 receptor (Cavia porcellus, UniProt P31389). Described as §1. The class given is functional, tissue-based.
Experiment [3] concerns the target Histamine H1 receptor (Cavia porcellus) (UniProt P31389). In words: Agonist activity at histamine H1 receptor in guinea pig ileum in presence of mepyramine. The class given is functional, tissue-based.
For experiment [4] the target is unchanged. The experiment is described as follows: Functional activity at the histamine H1 receptor in guinea pig ileum. Type of experiment: tissue-based.

Sequence of Histamine H1 receptor (Cavia porcellus) (P31389 whole entry): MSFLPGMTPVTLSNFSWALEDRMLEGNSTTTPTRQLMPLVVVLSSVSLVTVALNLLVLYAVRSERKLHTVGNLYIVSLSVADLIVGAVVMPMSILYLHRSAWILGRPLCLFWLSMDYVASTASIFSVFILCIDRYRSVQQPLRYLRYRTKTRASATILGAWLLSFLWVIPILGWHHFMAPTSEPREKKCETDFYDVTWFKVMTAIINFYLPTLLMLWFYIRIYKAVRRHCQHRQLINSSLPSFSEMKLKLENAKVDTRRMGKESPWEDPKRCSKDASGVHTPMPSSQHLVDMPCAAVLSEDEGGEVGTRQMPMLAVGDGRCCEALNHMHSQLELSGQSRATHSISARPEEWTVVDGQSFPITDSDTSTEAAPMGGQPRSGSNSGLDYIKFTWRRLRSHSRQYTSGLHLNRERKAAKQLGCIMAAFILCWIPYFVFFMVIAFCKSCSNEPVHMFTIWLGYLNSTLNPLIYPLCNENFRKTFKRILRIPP
Sequence of Histamine H1 receptor (P31389 whole entry): as above

On to `NCCc1c[nH]c(C(=O)CC(c2ccccc2)c2ccccc2)n1`, for which, in experiment [1], the Activity stood at 12% and the Emax was 75%. The same compound gave an EC50 in experiment [2] of 1660 nM. Also, the Emax in experiment [3] came to 47%.
As to `NCCc1c[nH]cn1`, in experiment [1], the Activity worked out at 100%.
In turn, `COC(=O)[C@@H](N)[C@H](O)c1c[nH]c(C(=O)CC(c2ccccc2)c2ccccc2)n1` gave an Emax in experiment [1] of 0%. Moreover, in experiment [4], the pD'2 was 4.61.
Turning to `COCCOCn1cc(CCN)nc1C(=O)CC(c1ccccc1)c1ccccc1`, the Emax in experiment [1] was determined as 0%. For the same compound, the pD'2 in experiment [4] stood at 5.05.
For `N[C@H](CO)[C@H](O)c1c[nH]c(C(=O)CC(c2ccccc2)c2ccccc2)n1` the same measures were 0% and 4.08.
For `COC(=O)C(N)C(O)c1c[nH]c(C(=O)CC(c2ccccc2)c2ccccc2)n1` (racemic) the same measures were 0% and 3.8.
